Experimental findings from ChEMBL document CHEMBL5223139, “Synthesis of 1-(5-(4-chlorophenyl)-1-(2,4-dichlorophenyl)-4-methyl-1H-pyrazol-3-yl)-2-morpholinoethane-1,2-dione analogues and their inhibitory activities with reduced cytotoxicity in lipopolysaccharide-induced BV2 cells” (Bioorg Med Chem Lett, 2023) are described below.

Data set [1] is described as follows: Cytotoxicity against mouse BV-2 cells assessed as cell viability at 5 uM incubated for 24 hrs by MTT assay relative to control. Format: toxicity, cell-based. Particulars: read-out: Activity.
Data set [2] in a line: Cytotoxicity against mouse BV-2 cells assessed as cell viability at 10 uM incubated for 24 hrs by MTT assay relative to control. Format: toxicity, cell-based. The following applies: read-out: Activity. A general note: Tetrazolium assays rely on reduction of a dye to a coloured formazan, in cell work by metabolically active cells.
The nature of data set [3]: Inhibition of LPS-induced NO production in mouse BV-2 cells at 5 uM incubated for 24 hrs by Griess reagent based method relative to control. Format: functional. In general terms: Nitrite, measured by Griess reagent, commonly stands in for NO production.
Data set [4] in a line: Inhibition of LPS-induced NO production in mouse BV-2 cells at 10 uM incubated for 24 hrs by Griess reagent based method relative to control. Format: functional.
Data set [5] in a line: Inhibition of LPS-induced NO production in mouse BV-2 cells incubated for 24 hrs by Griess reagent based method. Particulars: BV-2, 24 h. Format: functional, cell-based.
The test system of data set [6] is BV-2. Briefly: Antiinflammatory activity in LPS-induced mouse BV-2 cells assessed as reduction in iNOS mRNA expression pretreated for 1 hr followed by LPS stimulation and measured after 6 hrs by RT-PCR analysis. Format: functional, cell-based. Particulars: dose 5-20 µM, time 7.0 hrs.
Data set [7] has as its system BV-2. As to the kind of experiment: Antiinflammatory activity in LPS-induced mouse BV-2 cells assessed as reduction in COX-2 mRNA expression pretreated for 1 hr followed by LPS stimulation and measured after 6 hrs by RT-PCR analysis. Format: functional, cell-based. Particulars: dose 5-20 µM, time 7.0 hrs.
Data set [8] relates to BV-2. Briefly: Antiinflammatory activity in LPS-induced mouse BV-2 cells assessed as reduction in TNF-alpha mRNA expression pretreated for 1 hr followed by LPS stimulation and measured after 6 hrs by RT-PCR analysis. Format: functional, cell-based. The following applies: dose 5-20 µM, time 7.0 hrs.
Data set [9] relates to BV-2. As to the kind of experiment: Antiinflammatory activity in LPS-induced mouse BV-2 cells assessed as reduction in IL-1beta mRNA expression pretreated for 1 hr followed by LPS stimulation and measured after 6 hrs by RT-PCR analysis. Particulars: dose 5-20 µM, time 7.0 hrs. Format: functional, cell-based.
Data set [10] has as its system BV-2. As to the kind of experiment: Antiinflammatory activity in LPS-induced mouse BV-2 cells assessed as reduction in IL-6 mRNA expression pretreated for 1 hr followed by LPS stimulation and measured after 6 hrs by RT-PCR analysis. Particulars: dose 5-20 µM, time 7.0 hrs. Format: functional, cell-based.
Data set [11] concerns BV-2. Briefly: Antiinflammatory activity in LPS-induced mouse BV-2 cells assessed as reduction in iNOS protein expression pretreated for 1 hr followed by LPS stimulation and measured after 18 hrs by Western blot analysis. Format: functional, cell-based. Particulars: dose 5-20 µM, time 19.0 hrs. A general note: In western blotting, separated proteins are transferred to a membrane and probed.

Data set [12] relates to BV-2. Briefly: Antiinflammatory activity in LPS-induced mouse BV-2 cells assessed as reduction in COX-2 protein expression pretreated for 1 hr followed by LPS stimulation and measured after 18 hrs by Western blot analysis. Format: functional, cell-based. The following applies: dose 5-20 µM, time 19.0 hrs.
Data set [13] concerns BV-2. As to the kind of experiment: Inhibition of NF-kappaB activation in LPS-stimulated mouse BV-2 cells assessed as reduction in phosphorylated IkappaB-alpha level pretreated for 30 mins followed by LPS stimulation by Western blot analysis. Particulars: dose 5-20 µM. Format: cell-based.
Data set [14] deals with BV-2. Briefly: Inhibition of NF-kappaB activation in LPS-stimulated mouse BV-2 cells assessed as reduction in phosphorylated p65 level pretreated for 30 mins followed by LPS stimulation by Western blot analysis. Format: cell-based. The following applies: dose 5-20 µM.
Data set [15] relates to BV-2. As to the kind of experiment: Inhibition of LPS-induced ERK phosphorylation in mouse BV-2 cells pretreated for 30 mins followed by LPS stimulation by Western blot analysis. Format: cell-based. Particulars: dose 5-20 µM.
In data set [16] the target is MAP kinase p38 (Mus musculus) (UniProt P47811+O08911+Q9WUI1+Q9Z1B7). Briefly: Inhibition of LPS-induced p38 phosphorylation in mouse BV-2 cells at 5 to 20 uM pretreated for 30 mins followed by LPS stimulation by Western blot analysis. The following applies: dose 5-20 µM. Format: cell-based.
Data set [17] has as its target c-Jun N-terminal kinase (Mus musculus) (UniProt Q91Y86+Q9WTU6+Q61831). As to the kind of experiment: Inhibition of LPS-induced JNK phosphorylation in mouse BV-2 cells at 5 to 20 uM pretreated for 30 mins followed by LPS stimulation by Western blot analysis. Format: cell-based. The following applies: dose 5-20 µM.

Calls of active or inactive are those of the source. The calls are words filed in the database; no cut-off is given here.

Sequence of c-Jun N-terminal kinase (Mus musculus) (Q61831 whole entry, looked up): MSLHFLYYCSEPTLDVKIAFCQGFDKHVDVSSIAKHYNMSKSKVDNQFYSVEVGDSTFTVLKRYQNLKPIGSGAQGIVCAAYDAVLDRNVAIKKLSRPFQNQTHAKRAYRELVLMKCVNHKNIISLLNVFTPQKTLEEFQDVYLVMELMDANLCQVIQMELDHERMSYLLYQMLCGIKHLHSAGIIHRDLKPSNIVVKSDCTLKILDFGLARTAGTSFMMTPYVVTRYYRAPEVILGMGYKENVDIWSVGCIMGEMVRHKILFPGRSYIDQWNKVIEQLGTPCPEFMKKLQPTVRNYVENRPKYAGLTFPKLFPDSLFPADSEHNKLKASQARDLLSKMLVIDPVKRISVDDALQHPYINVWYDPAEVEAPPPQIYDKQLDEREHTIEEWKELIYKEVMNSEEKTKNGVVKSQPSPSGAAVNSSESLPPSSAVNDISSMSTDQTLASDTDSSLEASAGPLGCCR
Sequence of c-Jun N-terminal kinase (Mus musculus) (Q91Y86 whole entry, looked up): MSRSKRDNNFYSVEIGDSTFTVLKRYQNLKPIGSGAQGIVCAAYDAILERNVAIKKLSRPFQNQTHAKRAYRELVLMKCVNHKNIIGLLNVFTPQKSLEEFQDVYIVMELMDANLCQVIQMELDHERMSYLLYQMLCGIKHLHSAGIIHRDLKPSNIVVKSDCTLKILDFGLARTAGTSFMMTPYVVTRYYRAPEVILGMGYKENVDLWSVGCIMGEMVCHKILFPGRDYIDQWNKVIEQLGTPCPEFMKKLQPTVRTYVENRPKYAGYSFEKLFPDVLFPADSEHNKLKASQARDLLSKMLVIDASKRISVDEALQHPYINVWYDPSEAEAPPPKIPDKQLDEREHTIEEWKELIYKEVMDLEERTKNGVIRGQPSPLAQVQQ
Sequence of c-Jun N-terminal kinase (Mus musculus) (Q9WTU6 whole entry, looked up): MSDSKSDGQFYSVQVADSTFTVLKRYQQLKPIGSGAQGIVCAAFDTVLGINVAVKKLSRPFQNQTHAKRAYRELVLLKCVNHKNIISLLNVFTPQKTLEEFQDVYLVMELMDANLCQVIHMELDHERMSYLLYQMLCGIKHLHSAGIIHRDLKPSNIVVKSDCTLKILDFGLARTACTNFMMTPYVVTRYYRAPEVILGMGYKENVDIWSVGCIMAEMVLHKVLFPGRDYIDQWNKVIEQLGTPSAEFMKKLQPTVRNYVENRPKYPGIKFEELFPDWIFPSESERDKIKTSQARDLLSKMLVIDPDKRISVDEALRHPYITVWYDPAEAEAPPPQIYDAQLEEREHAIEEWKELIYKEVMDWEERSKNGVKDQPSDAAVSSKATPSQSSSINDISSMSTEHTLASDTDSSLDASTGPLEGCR

Take `Cc1c(C(=O)C(=O)N2CCCC2)nn(-c2ccc(Cl)cc2Cl)c1-c1ccc(Cl)cc1`: the viability at 24 h, 5 µM in data set [1] was under 80%.

Take `CCCCCNC(=O)C(=O)c1nn(-c2ccc(Cl)cc2Cl)c(-c2ccc(Cl)cc2)c1C`: in [1], the viability at 24 h, 5 µM was under 80%.

The term inhibition denotes the drop in the measured response relative to a control, in per cent. Usually IC50 stands for the concentration that gives 50% inhibition. Read a high IC50 as weaker potency. As to `Cc1c(C(=O)NN2CCCCC2)nn(-c2ccc(Cl)cc2Cl)c1-c1ccc(Cl)cc1` [RIMONABANT], the viability at 24 h, 5 µM in data set [1] came to 99.3%. Further, the viability at 24 h, 10 µM in data set [2] was found to be 91.2%. In [3], this compound showed an inhibition at 5 µM of 21.2%. For the same compound, the inhibition at 10 µM in data set [4] stood at 43.9%. This compound gave an IC50 in [5] of 16.2 µM.

On to `CCCCNC(=O)C(=O)c1nn(-c2ccc(Cl)cc2Cl)c(-c2ccc(Cl)cc2)c1C`, for which, in [1], the viability at 24 h, 5 µM is under 80%.

Take `Cc1c(C(=O)C(=O)N2CCCCCC2)nn(-c2ccc(Cl)cc2Cl)c1-c1ccc(Cl)cc1`: the viability at 24 h, 5 µM in data set [1] was under 80%.

`Cc1c(C(=O)C(=O)NC2CCCC2)nn(-c2ccc(Cl)cc2Cl)c1-c1ccc(Cl)cc1`: the viability at 24 h, 5 µM in data set [1] was under 80%.

In the case of `Cc1c(C(=O)C(=O)NC2CCCCC2)nn(-c2ccc(Cl)cc2Cl)c1-c1ccc(Cl)cc1`, the viability at 24 h, 5 µM in [1] came to 96.8%. The viability at 24 h, 10 µM in [2] is under 80%. In data set [3], this compound returned an inhibition at 5 µM of 87.4%.

Turning to `Cc1c(C(=O)C(=O)NC23CC4CC(CC(C4)C2)C3)nn(-c2ccc(Cl)cc2Cl)c1-c1ccc(Cl)cc1`, the viability at 24 h, 5 µM in data set [1] was under 80%.

`Cc1c(C(=O)C(=O)NN2CCCCC2)nn(-c2ccc(Cl)cc2Cl)c1-c1ccc(Cl)cc1`: in [1], the viability at 24 h, 5 µM was under 80%.

For the compound `CCCCCCCNC(=O)C(=O)c1nn(-c2ccc(Cl)cc2Cl)c(-c2ccc(Cl)cc2)c1C`, the viability at 24 h, 5 µM in [1] is under 80%.

In the case of `CCCCCCNC(=O)C(=O)c1nn(-c2ccc(Cl)cc2Cl)c(-c2ccc(Cl)cc2)c1C`, the viability at 24 h, 5 µM in data set [1] was under 80%.

Regarding `Cc1c(C(=O)C(=O)N2CCCCC2)nn(-c2ccc(Cl)cc2Cl)c1-c1ccc(Cl)cc1`, the viability at 24 h, 5 µM in data set [1] came out at 98.2%. Further, the viability at 24 h, 10 µM in [2] worked out at 80%. The same compound registered an inhibition at 5 µM in [3] of 20.3%. Moreover, the inhibition at 10 µM in data set [4] was found to be 50.1%. Besides, in data set [5], half-maximal inhibition (IC50) was put at 5.82 µM.

Take `Cc1c(C(=O)C(=O)NC(C)C)nn(-c2ccc(Cl)cc2Cl)c1-c1ccc(Cl)cc1`: in data set [1], the viability at 24 h, 5 µM is under 80%.

Turning to `CCCCCCCCNC(=O)C(=O)c1nn(-c2ccc(Cl)cc2Cl)c(-c2ccc(Cl)cc2)c1C`, the viability at 24 h, 5 µM in data set [1] was under 80%.

Turning to `Cc1c(C(=O)C(=O)NCCCO)nn(-c2ccc(Cl)cc2Cl)c1-c1ccc(Cl)cc1`, the viability at 24 h, 5 µM in data set [1] was under 80%.

With `Cc1c(C(=O)C(=O)N2CCN(C)CC2)nn(-c2ccc(Cl)cc2Cl)c1-c1ccc(Cl)cc1`, in data set [1], the viability at 24 h, 5 µM was 95.2%. The viability at 24 h, 10 µM in data set [2] was at most 80%. Testing at 5 µM in data set [3] gave an inhibition of 38.1%. Further, the inhibition at 10 µM in data set [4] was 48%.

With `Cc1c(C(=O)C(=O)N2CCOCC2)nn(-c2ccc(Cl)cc2Cl)c1-c1ccc(Cl)cc1`, the viability at 24 h, 5 µM in [1] was 98%. In data set [2], the viability at 24 h, 10 µM is 98.7%. In addition, testing at 5 µM in [3] gave an inhibition of 26.1%. In addition, in data set [4], the inhibition at 10 µM turned out to be 49.7%. This compound also came in with an IC50 in data set [5] of 4.71 µM. Moreover, the Activity result with BV-2 [6], with BV-2 [7], with BV-2 [8], with BV-2 [9], in the data set with BV-2 [10] and in the data set on BV-2 [11] was “Dose-Dependent Effect” in each case. Besides, the Activity result in the data set with BV-2 [12] is “Dose-Dependent Effect”. For the same compound, the inhibition entry in the data set on BV-2 [13], with BV-2 [14] and in the data set on BV-2 [15] was “Dose-Dependent Effect” throughout. Besides, the inhibition result in [16] and in data set [17] was “inactive” throughout.

As to `Cc1c(C(=O)C(=O)NCC(C)C)nn(-c2ccc(Cl)cc2Cl)c1-c1ccc(Cl)cc1`, the viability at 24 h, 5 µM in data set [1] is under 80%.

On to `Cc1c(C(=O)C(=O)NC2CCC(O)CC2)nn(-c2ccc(Cl)cc2Cl)c1-c1ccc(Cl)cc1` (stereo unspecified), for which the viability at 24 h, 5 µM in [1] is under 80%.

In the case of `Cc1c(C(=O)C(=O)N2CCC(O)CC2)nn(-c2ccc(Cl)cc2Cl)c1-c1ccc(Cl)cc1`, the viability at 24 h, 5 µM in data set [1] is under 80%.

As to `Cc1c(C(=O)C(=O)N2CCNCC2)nn(-c2ccc(Cl)cc2Cl)c1-c1ccc(Cl)cc1`, in [1], the viability at 24 h, 5 µM is under 80%.

For the compound `Cc1c(C(=O)C(=O)NCCO)nn(-c2ccc(Cl)cc2Cl)c1-c1ccc(Cl)cc1`, in [1], the viability at 24 h, 5 µM was 94.2%. Also, the viability at 24 h, 10 µM in [2] came to 93.6%. In data set [3], this compound displayed an inhibition at 5 µM of 62.8%. Besides, the inhibition at 10 µM in [4] amounted to 73.4%. The same compound returned a half-inhibitory concentration (IC50) in data set [5] of 5.08 µM.

As for `Cc1c(C(=O)C(=O)NC(C)(C)C)nn(-c2ccc(Cl)cc2Cl)c1-c1ccc(Cl)cc1`, the viability at 24 h, 5 µM in data set [1] is under 80%.

As to `CCCNC(=O)C(=O)c1nn(-c2ccc(Cl)cc2Cl)c(-c2ccc(Cl)cc2)c1C`, the viability at 24 h, 5 µM in [1] was under 80%.

Take `Cc1c(C(=O)C(=O)N2CCSCC2)nn(-c2ccc(Cl)cc2Cl)c1-c1ccc(Cl)cc1`: in [1], the viability at 24 h, 5 µM amounted to 99.6%. The viability at 24 h, 10 µM in data set [2] was 96.5%. In addition, the inhibition at 5 µM in data set [3] stood at 13.5%. Besides, the inhibition at 10 µM in [4] worked out at 58.3%. In [5], this compound registered an IC50 of 5.28 µM.

Regarding `Cc1c(C(=O)C(=O)NC2CCCCCC2)nn(-c2ccc(Cl)cc2Cl)c1-c1ccc(Cl)cc1`, the viability at 24 h, 5 µM in data set [1] is under 80%.

Consider `CCNC(=O)C(=O)c1nn(-c2ccc(Cl)cc2Cl)c(-c2ccc(Cl)cc2)c1C`, for which the viability at 24 h, 5 µM in [1] amounted to 86.4%. In addition, in data set [2], the viability at 24 h, 10 µM is under 80%. In data set [3], this compound showed an inhibition at 5 µM of 63.7%.
